The values below come from patent publication US5023087A, “Efficient method for preparation of prolonged release liposome-based drug delivery system” (Liposome Technology, Inc., priority 1989, dated 1991).

A short description of data set [1]: Clearance of 125I-sCT from the intramuscular or subcutaneous site of injection. The note with it: free drug, FIG. 2/3. It counts as in vivo, Sprague-Dawley rats. How it is done: The rate of clearance of sCT from a given liposome furmulation was determined by monitoring the clearance of ^125 I-sCT from the intramuscular site of injection. Salmon calcitonin was spiked with ^1251 -sCT and encapsulated in MLVs as described in Example I in such a way that after the removal of non-liposome associated drug, the injection sample contained about 10,000 cpm of ^125 I per injection.
Male Sprague-Dawley rats weighing 95 to 100 g were lightly anesthetized with ether, and 20 ul or 100 ul of the ^125 I-sCT liposome samples were injected either in the lower part of the forelimbs or the hindlimbs respectively. Sixteen to twenty rats were used in each experiment. […] At each time point, two rats were anesthetized for blood sampling (two ml blood were drawn and counted for ^125 I radioactivity). […] The limbs were inserted into tubes and then counted for remaining radioactivity in a gamma counter. The eight to ten time points shown in FIG. 2 were selected so that the half-life of clearance from the IM site could be determined by a semi-log plot of the radioactivity remaining versus time after injection as shown in FIG. 3. […]
The urine and feces from the two rats kept in metabolic cages throughout the experiment were collected and counted for radioactivity. […]

The nature of data set [2]: Plasma levels of immunoreactive sCT (radio-immunoassay) after IM injection. It counts as in vivo, rats. The note with it: 1 ug. How it is done:
Rats weighing 95 to 105 gm were injected intramuscularly in the forelimbs with sCT or sCT-MLVs. At each time point, four rats were bled by cardiac puncture and the blood collected in pre-chilled EDTA containing tubes. The plasma was collected after centrifugation at 4° C. and quickly frozen. The frozen samples were sent to Hazleton Laboratories for sCT radio-immunoassay (RIA). […] Thus, sCT-MLVs injected intramuscularly can achieve prolonged delivery to the systemic circulation.

Data set [3] can be described thus: Apparent first order absorption rate constant of gentamicin from urinary excretion after IM injection. The note with it: lipid dose 0 umol/inj.
Method: The gentamicin concentration in the liposomes formulation was determined by the EMIT assay (Syva, Palo Alto, CA) after lysis in triton X-100.
Therefore, the apparent absorption rate constant, Ka, was estimated with the urinary excretion.
One group of four rats was immediately placed in metabolic cages (one rat per cage) and urine was collected at 24 hour intervals for the duration of the experiment. Cages were rinsed with distilled water after each collection and the volume of the pooled urine and rinses were recorded. An aliquot of each sample was frozen until assay.

As to `CC(C)C[C@H](NC(=O)[C@H](CCCCN)NC(=O)CNC(=O)[C@H](CC(C)C)NC(=O)[C@@H](NC(=O)[C@@H]1CSSC[C@H](N)C(=O)N[C@@H](CO)C(=O)N[C@@H](CC(N)=O)C(=O)N[C@@H](CC(C)C)C(=O)N[C@@H](CO)C(=O)N[C@@H]([C@@H](C)O)C(=O)N1)C(C)C)C(=O)N[C@@H](CO)C(=O)N[C@@H](CCC(N)=O)C(=O)N[C@@H](CCC(=O)O)C(=O)N[C@@H](CC(C)C)C(=O)N[C@@H](Cc1c[nH]cn1)C(=O)N[C@@H](CCCCN)C(=O)N[C@@H](CC(C)C)C(=O)N[C@@H](CCC(N)=O)C(=O)N[C@H](C(=O)N[C@@H](Cc1ccc(O)cc1)C(=O)N1CCC[C@H]1C(=O)N[C@@H](CCCNC(=N)N)C(=O)N[C@H](C(=O)N[C@@H](CC(N)=O)C(=O)N[C@H](C(=O)NCC(=O)N[C@@H](CO)C(=O)NCC(=O)N[C@H](C(=O)N1CCC[C@H]1C(N)=O)[C@@H](C)O)[C@@H](C)O)[C@@H](C)O)[C@@H](C)O` [F-sCT, Salmon calcitonin], the “clearance half-life from the site of IM injection” value in data set [1] is listed as “a few minutes”. Besides, in data set [2], the “plasma immunoreactive sCT in circulation” value is recorded as “rapidly disappeared from circulation”. Consider gentamicin [Gentamicin solution], for which the “Rate Const. Ka (apparent first order absorption rate constant)” value in data set [3] was 5.3 h⁻¹.
